Here are results for 9 molecules from PubChem BioAssay (NCI).

Test in all cases: NCI anticancer screen, dose series, 48 h
Assay [1] has as its system RXF 393 renal.
Assay [2] concerns HCT-15 colon.
Assay [3] has as its system OVCAR-5 ovarian.
Assay [4] deals with HS 578T breast.
The test system of assay [5] is U251 CNS.
Assay [6] concerns A498 renal.
The test system of assay [7] is NCI-H226 lung.
Assay [8] has as its system HT29 colon.
Assay [9] relates to OVCAR-4 ovarian.
The test system of assay [10] is OVCAR-3 ovarian.

Molecules are shown by their SMILES. Where “and” joins values, the source holds several entries; their conditions need not be identical. Identical values can stand only once.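 A five-concentration, 48-hour dose response in 96-well plates underlies each endpoint, interpolated linearly between surrounding concentrations. At the GI50, growth is halved. TGI marks complete inhibition of growth.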 Where only a bound is given, the exact number is not on record here.

Consider `O=C(O)c1cscc1Cc1cccs1`, for which the TGI in [1], in assay [2], in [3], in assay [4], in assay [5] and in assay [6] was above 100 µM in each case. Moreover, the TGI in assay [7], in assay [8], in assay [9] and in [10] was above 100 µM in each case.
For `O=C(CNc1ncco1)Nc1ccc(S(=O)(=O)c2ccc(NC(=O)CNc3ncco3)cc2)cc1`, the GI50 is 1.42 µM in assay [1]; 1.47 µM in [2]; 2.03 µM in assay [3]; 14.3 µM in assay [4]; 1.17 µM in [5]; 21.8 µM in [6]. The GI50 in assay [7] is 2.32 µM; in assay [10], 1.63 µM. Besides, the TGI is 2.86 µM in assay [1]; 5.44 µM in [2]; 4.13 µM in assay [3]; above 100 µM in assay [4]; 2.48 µM in [5]; 62.7 µM in [6]. In addition, the TGI in [7] amounted to 7.09 µM; in assay [10], 3.71 µM.
Consider `NC(=S)N/N=C\c1nccc2c(N)cccc12`, for which the GI50 in assay [1] is 0.248 µM; in assay [2], 0.426 µM; in assay [3] it was 1.14 µM; in assay [4], 1.68 µM; in assay [5], 0.237 µM; in assay [6] it was 0.172 µM. Moreover, the GI50 in [7] is 0.282 µM; in assay [8], 0.454 µM; in assay [9], 0.414 µM; in assay [10], 0.306 µM. The TGI was 17.1 µM in assay [1]; above 100 µM in assay [2]; above 100 µM in assay [3]; above 100 µM in [4]; 1.02 µM in assay [6]; 1.08 µM in assay [7]. The TGI in assay [8], in [9] and in assay [10] was above 100 µM throughout.
For the molecule `O=C1C(=O)c2ccccc2C(O)=C1CC=C(Cl)Cl`, the GI50 in assay [1] is 13.8 µM and 13.7 µM; in assay [2], 0.424 µM; in [3], 17.2 µM and 28.3 µM; in assay [4], 14 µM and 13.3 µM; in assay [5] it was 2.17 µM and 2.01 µM; in assay [6], 15.1 µM and 13.9 µM. Also, the GI50 in assay [7] is 8.26 µM and 24.2 µM and 14.4 µM; in assay [8], 6.4 µM; in assay [9], 18.9 µM and 26.9 µM; in assay [10], 9.76 µM and 15 µM. Also, the TGI in [1] is 76.9 µM and 203 µM and 97.9 µM; in assay [2], 51.7 µM and 159 µM and > 100 µM; in assay [3] it was 195 µM and > 100 µM; in assay [4], 194 µM and > 100 µM; in assay [5], > 85.8 µM and 138 µM and > 100 µM; in assay [6], 57.8 µM and 96.2 µM and 51 µM. Besides, the TGI in assay [7] is 39.9 µM and 135 µM and 91.1 µM; in assay [8] it was 141 µM and > 100 µM; in [9], 96.9 µM and 135 µM and > 100 µM; in [10] it was 38.9 µM and 70.8 µM and 70.3 µM.
Take `O=[N+]([O-])c1ccc(/C=C(/c2ccc([N+](=O)[O-])o2)S(=O)(=O)c2ccccc2)o1`: the TGI in assay [1] was above 100 µM; in assay [2], 26 µM; in [3], 33.9 µM; in [4], 44.3 µM; in [5], 29.4 µM; in [7] it was 3.65 µM. The TGI in assay [8] came to 13.6 µM; in assay [9], 15.5 µM; in assay [10], 29 µM.
Turning to `CCCCCCC#CC#Cc1cccc(=O)o1`, the GI50 was 1.72 µM in [1]; 1.67 µM in assay [2]; 2.25 µM in assay [3]; 1.99 µM in [4]; 2.07 µM in assay [5]; 14.9 µM in [6]. Moreover, the GI50 in [7] was 2.07 µM; in [8] it was 3.69 µM; in assay [9], 9.12 µM; in assay [10], 2.04 µM. Also, the TGI in [1] turned out to be 4.65 µM; in [2] it was 3.64 µM; in assay [3], 4.95 µM; in assay [4], 6.49 µM; in [5] it was 4.92 µM; in assay [6] it was 29.1 µM. Besides, the TGI amounted to 4.7 µM in assay [7], 34.6 µM in assay [8], 23.1 µM in assay [9] and 4.8 µM in assay [10].
Consider `C(=C\c1nccc2c1[nH]c1ccccc12)/c1ccccc1`, for which the GI50 in assay [1] is 2.06 µM; in [2] it was 2.43 µM; in [3], 3.04 µM; in assay [4], 2.35 µM; in assay [5] it was 3.26 µM; in [6], 4.36 µM. Further, the GI50 in [7] was 4.09 µM; in [8], 3.07 µM; in [9], 3.18 µM; in assay [10], 2.31 µM. For the same molecule, the TGI in assay [1] is 4.66 µM; in [2] it was 17.5 µM; in assay [3] it was above 100 µM; in [4] it was 9.34 µM; in [5], 13.7 µM; in assay [6], 15.9 µM. For the same molecule, the TGI in [7] is above 100 µM; in assay [8], 11.9 µM; in assay [9], above 100 µM; in [10], 6.65 µM.
As for `COc1cc(C2=NN(c3ccc(S(N)(=O)=O)cc3)C(c3ccc(Cl)cc3)C2)cc(OC)c1OC` (centres undefined), the GI50 in [1] is 3.05 µM; in assay [2], 3.77 µM; in assay [3], 3.69 µM; in assay [4] it was 3.58 µM; in [5] it was 3.84 µM; in [6], 1.93 µM. The GI50 in [7] was 7.25 µM; in assay [8] it was 4.15 µM; in assay [9] it was 3.16 µM; in assay [10], 4.68 µM. In addition, the TGI in assay [1] is above 100 µM; in [2], above 100 µM; in [3], above 100 µM; in assay [4], above 100 µM; in assay [5], above 100 µM; in assay [6], 7.68 µM. Also, the TGI in assay [7] is above 100 µM; in [8], above 100 µM; in [9], 9.46 µM; in assay [10], above 100 µM.
For the molecule `Cc1cc(C)c2c(SCc3ccc(Cl)cc3Cl)nc(N)nc2n1`, the TGI in assay [1], in assay [2], in [3], in assay [4], in [5] and in [6] was above 100 µM each time. Besides, the TGI in assay [7] was above 100 µM; in assay [8], above 100 µM; in assay [9], above 100 µM; in assay [10], 76.2 µM.
